Source: article PMC5218480 (PLoS ONE, 2017)

Test system: MV-4-11 cells
Test: Gene expression microarray analysis (Affymetrix PrimeView) and GSEA
Assay type: cell-based, human
Design: RFU PODN (11730768_x_at) / Fold change /veh PODN (11730768_x_at) / RFU LINC00158 (11744669_a_at) / Fold change /veh LINC00158 (11744669_a_at) / RFU DUSP10 (11751237_a_at) / Fold change /veh DUSP10 (11751237_a_at) / RFU ID3 (11757404_x_at) / Fold change /veh ID3 (11757404_x_at) / RFU PLEKHG5 (11737974_s_at) / Fold change /veh PLEKHG5 (11737974_s_at) / RFU LRRC4B (11730491_at) / Fold change /veh LRRC4B (11730491_at) / RFU GIMAP4 (11747438_a_at) / Fold change /veh GIMAP4 (11747438_a_at) / RFU KRT8 (11758183_x_at) / Fold change /veh KRT8 (11758183_x_at) / RFU CNN1 (11734310_a_at) / Fold change /veh CNN1 (11734310_a_at) / RFU VPS37D (11726825_at) / Fold change /veh VPS37D (11726825_at) / RFU C10orf10 (11716522_x_at) / Fold change /veh C10orf10 (11716522_x_at) / RFU KIR2DL2 /// KIR2DL4 /// KIR2DL5A /// KIR2DL5B /// KIR2DS1 /// KIR2DS2 /// KIR2DS3 /// KIR2DS4 /// KIR3DL3 /// KIR3DL3 /// KIR3DS1 (11738374_at) / Fold change /veh KIR2DL2 /// KIR2DL4 /// KIR2DL5A /// KIR2DL5B /// KIR2DS1 /// KIR2DS2 /// KIR2DS3 /// KIR2DS4 /// KIR3DL3 /// KIR3DL3 /// KIR3DS1 (11738374_at) / RFU C1QL1 (11718748_at) / Fold change /veh C1QL1 (11718748_at) / RFU TMPRSS4 (11747572_a_at) / Fold change /veh TMPRSS4 (11747572_a_at) / RFU HAMP (11756126_x_at) / Fold change /veh HAMP (11756126_x_at) / RFU RNFT2 (11725882_a_at) / Fold change /veh RNFT2 (11725882_a_at) / RFU NR4A2 (11747474_a_at) / Fold change /veh NR4A2 (11747474_a_at) / RFU ABCC12 (11746883_a_at) / Fold change /veh ABCC12 (11746883_a_at) / RFU TMEM136 (11760407_x_at) / Fold change /veh TMEM136 (11760407_x_at) / RFU CLDN22 /// WWC2 (11732394_at) / Fold change /veh CLDN22 /// WWC2 (11732394_at) / RFU HLA-DPB1 (11760878_x_at) / Fold change /veh HLA-DPB1 (11760878_x_at) / RFU SPINT1 (11716480_a_at) / Fold change /veh SPINT1 (11716480_a_at) / RFU GAP43 (11754022_s_at) / Fold change /veh GAP43 (11754022_s_at) / RFU A4GNT (11735810_at) / Fold change /veh A4GNT (11735810_at) / RFU PRB3 (11715151_x_at) / Fold change /veh PRB3 (11715151_x_at) / RFU TUBB4B (11761932_at) / Fold change /veh TUBB4B (11761932_at) / RFU CAPN14 (11732068_a_at) / Fold change /veh CAPN14 (11732068_a_at) / RFU TMCC2 (11721928_a_at) / Fold change /veh TMCC2 (11721928_a_at) / RFU IRGQ (11745062_a_at) / Fold change /veh IRGQ (11745062_a_at) / RFU FAM174B (11720279_a_at) / Fold change /veh FAM174B (11720279_a_at) / RFU TMPRSS4 (11748680_a_at) / Fold change /veh TMPRSS4 (11748680_a_at) / RFU FAM212B (11763350_a_at) / Fold change /veh FAM212B (11763350_a_at) / RFU PLEKHG5 (11743358_a_at) / Fold change /veh PLEKHG5 (11743358_a_at) / RFU ZSCAN30 (11745921_a_at) / Fold change /veh ZSCAN30 (11745921_a_at) / RFU CMKLR1 (11741424_a_at) / Fold change /veh CMKLR1 (11741424_a_at) / RFU LOC101060620 /// MAPK8IP1 (11723275_at) / Fold change /veh LOC101060620 /// MAPK8IP1 (11723275_at) / RFU SPTSSB (11747773_x_at) / Fold change /veh SPTSSB (11747773_x_at) / RFU PRSS12 (11739890_at) / Fold change /veh PRSS12 (11739890_at) / RFU BIN1 (11741810_x_at) / Fold change /veh BIN1 (11741810_x_at) / RFU WNT11 (11732464_a_at) / Fold change /veh WNT11 (11732464_a_at) / RFU C10orf10 (11716521_a_at) / Fold change /veh C10orf10 (11716521_a_at) / RFU C5orf56 (11738089_at) / Fold change /veh C5orf56 (11738089_at) / RFU CYB561 (11721691_x_at) / Fold change /veh CYB561 (11721691_x_at) / RFU ANKRD19P (11752326_a_at) / Fold change /veh ANKRD19P (11752326_a_at) / RFU OR2T12 /// OR2T33 /// OR2T8 (11738714_s_at) / Fold change /veh OR2T12 /// OR2T33 /// OR2T8 (11738714_s_at) / RFU VCAN (11748164_a_at) / Fold change /veh VCAN (11748164_a_at) / RFU JSRP1 (11732532_at) / Fold change /veh JSRP1 (11732532_at) / RFU KRTAP10-11 (11738290_x_at) / Fold change /veh KRTAP10-11 (11738290_x_at) / RFU MYO3A (11730013_a_at) / Fold change /veh MYO3A (11730013_a_at) / RFU EBF3 (11725865_a_at) / Fold change /veh EBF3 (11725865_a_at) / RFU CAMK2N1 (11719241_x_at) / Fold change /veh CAMK2N1 (11719241_x_at) / RFU C5orf56 (11738088_a_at) / Fold change /veh C5orf56 (11738088_a_at) / RFU OLFML3 (11715873_a_at) / Fold change /veh OLFML3 (11715873_a_at) / RFU LOC100653217 /// NTM (11731650_a_at) / Fold change /veh LOC100653217 /// NTM (11731650_a_at) / RFU MAPK11 (11762145_a_at) / Fold change /veh MAPK11 (11762145_a_at) / RFU FIZ1 (11724087_x_at) / Fold change /veh FIZ1 (11724087_x_at) / RFU OASL (11726364_x_at) / Fold change /veh OASL (11726364_x_at) / RFU SOX15 (11748057_x_at) / Fold change /veh SOX15 (11748057_x_at) / RFU CD79A (11719716_a_at) / Fold change /veh CD79A (11719716_a_at) / RFU HIST1H1D (11736915_at) / Fold change /veh HIST1H1D (11736915_at) / RFU CASKIN2 (11723855_a_at) / Fold change /veh CASKIN2 (11723855_a_at) / RFU LOC730098 (11760151_x_at) / Fold change /veh LOC730098 (11760151_x_at) / RFU OR4N2 (11742367_at) / Fold change /veh OR4N2 (11742367_at) / RFU PRRT2 (11749266_a_at) / Fold change /veh PRRT2 (11749266_a_at) / RFU SNX32 (11753110_a_at) / Fold change /veh SNX32 (11753110_a_at) / RFU CDHR5 (11726645_a_at) / Fold change /veh CDHR5 (11726645_a_at) / RFU RCAN1 (11760418_a_at) / Fold change /veh RCAN1 (11760418_a_at) / RFU FAM167A (11723789_a_at) / Fold change /veh FAM167A (11723789_a_at) / RFU FAM26E (11764081_at) / Fold change /veh FAM26E (11764081_at) / RFU ISYNA1 (11749810_s_at) / Fold change /veh ISYNA1 (11749810_s_at) / RFU ACY1 (11761880_at) / Fold change /veh ACY1 (11761880_at) / RFU 11764098_at / Fold change /veh 11764098_at / RFU SAMD14 (11745864_x_at) / Fold change /veh SAMD14 (11745864_x_at) / RFU NPB (11741838_a_at) / Fold change /veh NPB (11741838_a_at) / RFU TMPRSS6 (11731388_a_at) / Fold change /veh TMPRSS6 (11731388_a_at) / RFU KRTAP10-2 (11738614_at) / Fold change /veh KRTAP10-2 (11738614_at) / RFU ARHGAP8 /// PRR5-ARHGAP8 (11727945_x_at) / Fold change /veh ARHGAP8 /// PRR5-ARHGAP8 (11727945_x_at) / RFU KRTAP5-7 /// NADSYN1 (11734609_at) / Fold change /veh KRTAP5-7 /// NADSYN1 (11734609_at) / RFU RASL12 (11751679_a_at) / Fold change /veh RASL12 (11751679_a_at) / RFU CDKN2B (11736163_a_at) / Fold change /veh CDKN2B (11736163_a_at) / RFU PRF1 (11729649_at) / Fold change /veh PRF1 (11729649_at) / RFU, ZNF638 /// ZNF638-IT1 / Fold change vs veh, ZNF638 /// ZNF638-IT1 / RFU, PANK3 / Fold change vs veh, PANK3 / RFU, SH3YL1 / Fold change vs veh, SH3YL1 / RFU, ZEB2 / Fold change vs veh, ZEB2 / RFU, NRIP1 / Fold change vs veh, NRIP1 / RFU, PTTG1IP / Fold change vs veh, PTTG1IP / RFU, CAPN2 / Fold change vs veh, CAPN2 / RFU, MED14 / Fold change vs veh, MED14 / RFU, SNORA58 / Fold change vs veh, SNORA58 / RFU, C1orf63 / Fold change vs veh, C1orf63 / RFU, LRRFIP1 / Fold change vs veh, LRRFIP1 / RFU, NDUFAF7 / Fold change vs veh, NDUFAF7 / RFU, SLC12A2 / Fold change vs veh, SLC12A2 / RFU, IBTK / Fold change vs veh, IBTK / RFU, ESF1 / Fold change vs veh, ESF1 / Fold change vs veh, TMEM50B / RFU, TAOK1 / Fold change vs veh, TAOK1 / RFU, ACBD3 / Fold change vs veh, ACBD3 / RFU, TMA16 / Fold change vs veh, TMA16 / RFU, RWDD3 / Fold change vs veh, RWDD3 / RFU, BCAT1 / Fold change vs veh, BCAT1 / RFU, EDEM3 / Fold change vs veh, EDEM3 / RFU, TMEM33 / Fold change vs veh, TMEM33 / RFU, WDR75 / Fold change vs veh, WDR75 / RFU, AHCTF1 / Fold change vs veh, AHCTF1 / RFU, TFRC / Fold change vs veh, TFRC / RFU, ZDHHC17 / Fold change vs veh, ZDHHC17 / RFU, NOM1 / Fold change vs veh, NOM1 / RFU, ARL8B / Fold change vs veh, ARL8B / RFU, ZBTB11 / Fold change vs veh, ZBTB11 / RFU, TAMM41 / Fold change vs veh, TAMM41 / RFU, KIAA1704 /// LOC100996395 / Fold change vs veh, KIAA1704 /// LOC100996395 / RFU, ING1 / Fold change vs veh, ING1 / RFU, TRMT61B / Fold change vs veh, TRMT61B / RFU, FUBP3 / Fold change vs veh, FUBP3 / RFU, TP53 / Fold change vs veh, TP53 / RFU, TNKS2 / Fold change vs veh, TNKS2 / RFU, ZFP14 / Fold change vs veh, ZFP14 / RFU, ACTR2 / Fold change vs veh, ACTR2 / RFU, PPP3R1 / Fold change vs veh, PPP3R1 / RFU, PIK3R1 / Fold change vs veh, PIK3R1 / RFU, HNRNPA1 / Fold change vs veh, HNRNPA1 / RFU, RNF170 / Fold change vs veh, RNF170 / RFU, ZNF28 / Fold change vs veh, ZNF28 / RFU, RNGTT / Fold change vs veh, RNGTT / RFU, OGT / Fold change vs veh, OGT / RFU, BRD1 / Fold change vs veh, BRD1 / RFU, MARS / Fold change vs veh, MARS / RFU, ZNF655 / Fold change vs veh, ZNF655 / RFU, FAHD1 / Fold change vs veh, FAHD1 / RFU, BDP1 / Fold change vs veh, BDP1 / RFU, LRRCC1 / Fold change vs veh, LRRCC1 / RFU, ARID1A / Fold change vs veh, ARID1A / RFU, ZNF146 / Fold change vs veh, ZNF146 / RFU, ZNF330 / Fold change vs veh, ZNF330 / RFU, GPN3 / Fold change vs veh, GPN3 / RFU, C9orf123 / Fold change vs veh, C9orf123 / RFU, N4BP2L2 / Fold change vs veh, N4BP2L2 / RFU, ARFIP1 / Fold change vs veh, ARFIP1 / RFU, FAM179B / Fold change vs veh, FAM179B / RFU, BCL10 / Fold change vs veh, BCL10 / RFU, UHRF1BP1L / Fold change vs veh, UHRF1BP1L / RFU, BET1 / Fold change vs veh, BET1 / RFU, CNOT2 / Fold change vs veh, CNOT2 / RFU, ZNF268 / Fold change vs veh, ZNF268 / Fold change vs veh, ZNF507 / RFU, DGCR2 / Fold change vs veh, DGCR2 / RFU, WDSUB1 / Fold change vs veh, WDSUB1 / Fold change vs veh, HSP90B1 /// MIR3652 / RFU, ADSS / Fold change vs veh, ADSS / RFU, GK / Fold change vs veh, GK / RFU, ZNF148 / Fold change vs veh, ZNF148 / RFU, TAF9 / Fold change vs veh, TAF9 / RFU, SLC1A5 / Fold change vs veh, SLC1A5 / RFU, SLMO2 / Fold change vs veh, SLMO2 / RFU, ABCC4 / Fold change vs veh, ABCC4 / RFU, LOC101060439 /// RAP1B / Fold change vs veh, LOC101060439 /// RAP1B / RFU, RFX7 / Fold change vs veh, RFX7 / RFU, GTPBP10 / Fold change vs veh, GTPBP10 / RFU, CNEP1R1 / Fold change vs veh, CNEP1R1 / RFU, BIVM-ERCC5 /// ERCC5 / Fold change vs veh, BIVM-ERCC5 /// ERCC5 / RFU, ILF3 / Fold change vs veh, ILF3 / RFU 11762660_at / Fold change /veh 11762660_at / RFU VCAN (11757783_s_at) / Fold change /veh VCAN (11757783_s_at) / RFU DDX43 (11728927_at) / Fold change /veh DDX43 (11728927_at) / RFU KRT8 (11758188_x_at) / Fold change /veh KRT8 (11758188_x_at) / RFU NKD1 (11759106_at) / Fold change /veh NKD1 (11759106_at) / RFU SRD5A1 (11742802_a_at) / Fold change /veh SRD5A1 (11742802_a_at) / RFU TPSAB1 /// TPSB2 (11721975_s_at) / Fold change /veh TPSAB1 /// TPSB2 (11721975_s_at) / RFU GSTM3 (11746129_a_at) / Fold change /veh GSTM3 (11746129_a_at) / RFU IL23R (11737362_x_at) / Fold change /veh IL23R (11737362_x_at) / RFU TMEM51 (11727254_a_at) / Fold change /veh TMEM51 (11727254_a_at) / RFU PIWIL2 (11732686_x_at) / Fold change /veh PIWIL2 (11732686_x_at) / RFU ORM1 (11744905_x_at) / Fold change /veh ORM1 (11744905_x_at) / RFU CCDC152 (11743942_at) / Fold change /veh CCDC152 (11743942_at) / RFU ECM1 (11717891_a_at) / Fold change /veh ECM1 (11717891_a_at) / RFU IL23R (11748794_a_at) / Fold change /veh IL23R (11748794_a_at) / RFU TNFAIP8L3 (11732012_x_at) / Fold change /veh TNFAIP8L3 (11732012_x_at) / RFU MBOAT4 (11741988_at) / Fold change /veh MBOAT4 (11741988_at) / RFU 11764193_at / Fold change /veh 11764193_at / RFU TMEM53 (11763286_at) / Fold change /veh TMEM53 (11763286_at) / RFU MAGEB2 (11727129_at) / Fold change /veh MAGEB2 (11727129_at) / RFU TMEM200A (11744735_a_at) / Fold change /veh TMEM200A (11744735_a_at) / RFU CCDC152 (11751479_a_at) / Fold change /veh CCDC152 (11751479_a_at) / RFU FAM211A (11726209_a_at) / Fold change /veh FAM211A (11726209_a_at) / RFU RGS16 (11746705_a_at) / Fold change /veh RGS16 (11746705_a_at) / RFU VCAN (11755009_s_at) / Fold change /veh VCAN (11755009_s_at) / RFU RHOB (11743442_s_at) / Fold change /veh RHOB (11743442_s_at) / RFU RGS16 (11720943_a_at) / Fold change /veh RGS16 (11720943_a_at) / RFU RGS16 (11720944_at) / Fold change /veh RGS16 (11720944_at) / RFU, VPS4B / Fold change vs veh, VPS4B / RFU, CREB1 / Fold change vs veh, CREB1 / RFU, DNAJC13 / Fold change vs veh, DNAJC13 / RFU, GNAQ / Fold change vs veh, GNAQ / RFU, CDK5R1 / Fold change vs veh, CDK5R1 / RFU, ZRANB3 / Fold change vs veh, ZRANB3 / RFU, CUL4A / Fold change vs veh, CUL4A / RFU, CCNY / Fold change vs veh, CCNY / RFU, UFL1 / Fold change vs veh, UFL1 / RFU, COG3 / Fold change vs veh, COG3 / RFU, DIAPH2 / Fold change vs veh, DIAPH2 / RFU, SKA2 / Fold change vs veh, SKA2 / RFU, AFF3 / Fold change vs veh, AFF3 / RFU, LMF1 / Fold change vs veh, LMF1 / RFU, IPO11 / Fold change vs veh, IPO11 / RFU, DFFB / Fold change vs veh, DFFB / RFU, FOXP1 / Fold change vs veh, FOXP1 / RFU, CARD8 / Fold change vs veh, CARD8 / RFU, STRN3 / Fold change vs veh, STRN3 / RFU, ADK / Fold change vs veh, ADK / RFU, RASSF2 / Fold change vs veh, RASSF2 / RFU, WIPF1 / Fold change vs veh, WIPF1 / RFU, LARP1B / Fold change vs veh, LARP1B / RFU, RASA1 / Fold change vs veh, RASA1 / RFU, RB1 / Fold change vs veh, RB1 / RFU, PPFIA1 / Fold change vs veh, PPFIA1 / RFU, MAT2A / Fold change vs veh, MAT2A / RFU, CCT5 / Fold change vs veh, CCT5 / RFU, WDR92 / Fold change vs veh, WDR92 / RFU, CUX1 / Fold change vs veh, CUX1 / RFU, TTC7A / Fold change vs veh, TTC7A / RFU, TMEM135 / Fold change vs veh, TMEM135 / RFU, DEPTOR / Fold change vs veh, DEPTOR / RFU, CPM / Fold change vs veh, CPM / RFU, DNAJB6 / Fold change vs veh, DNAJB6 / RFU, CACNA2D3 / Fold change vs veh, CACNA2D3 / RFU, DTX4 / Fold change vs veh, DTX4 / RFU, TFCP2 / Fold change vs veh, TFCP2 / RFU, GMCL1 /// GMCL1P1 / Fold change vs veh, GMCL1 /// GMCL1P1 / RFU, AEBP2 / Fold change vs veh, AEBP2 / RFU, SNHG1 /// SNORD22 /// SNORD25 /// SNORD26 /// SNORD27 /// SNORD28 /// SNORD29 /// SNORD31 / Fold change vs veh, SNHG1 /// SNORD22 /// SNORD25 /// SNORD26 /// SNORD27 /// SNORD28 /// SNORD29 /// SNORD31 / Fold change (Aza/veh), C12orf56 (ProbeSet 11735607_a_at) / Fold change (ACY-1035/veh), C12orf56 (ProbeSet 11735607_a_at) / Fold change (Aza/veh), FGFR1OP (ProbeSet 11751329_s_at) / Fold change (ACY-1035/veh), FGFR1OP (ProbeSet 11751329_s_at) / Fold change (Aza/veh), VPS36 (ProbeSet 11739960_a_at) / Fold change (ACY-1035/veh), VPS36 (ProbeSet 11739960_a_at) / RFU SYPL1 (11715823_x_at) / Fold change /veh SYPL1 (11715823_x_at) / RFU IGFBP7 (11715501_s_at) / Fold change /veh IGFBP7 (11715501_s_at) / RFU REEP3 (11722064_at) / Fold change /veh REEP3 (11722064_at) / RFU IGLL1 (11728026_x_at) / Fold change /veh IGLL1 (11728026_x_at): dose or concentration left out as unconfirmed
Settings: MV-4-11 cells, 48 hours

For Nc1ccc(-c2cccs2)cc1NC(=O)c1ccc2c(c1)cc(C1CC1)n2CCN1CCOCC1 [ACY-1035], the “Fold change /veh C5orf56 (11738088_a_at)” value was 0.99.
